Data reported in patent US20190315823A1, “SMALL CATIONIC ANTI-BIOFILM AND IDR PEPTIDES” (priority 2013, published 2019).
Read-outs that look alike come from different tables or passages of the source. Marks after values point to notes of the source that are not given here. Peptide text beside a SMILES is read from it.

Experiments:
Assay type in all cases: cell-based
[1] = test system: Pseudomonas aeruginosa (Pa) biofilm; assay: static abiotic solid surface (microtiter, crystal violet) / Bioflux biofilm inhibition screen
Description: FIG. 1. Identification of new anti-biofilm peptides active against P. aeruginosa using the microtiter plate screening method with crystal violet staining. […] As a control peptide 1037 was utilized [de la Fuente Nunez et al. 2011].
Methods of assessment of anti-biofilm activity—Biofilm formation was initially analyzed using a static abiotic solid surface assay as described elsewhere (de la Fuente-Nunez et al., 2012). Dilutions (1/100) of overnight cultures were incubated in BM2 biofilm-adjusted medium [62 mM potassium phosphate buffer (pH 7), 7 mM (NH4)2SO4, 2 mM MgSO4, 10 μM FeSO4, 0.4% (wt/vol) glucose, 0.5% (wt/vol) Casamino Acids], or a nutrient medium such as Luria Broth, in polypropylene microtiter plates (Falcon, United States) in the absence (control) or presence of peptide. Peptide was added at time zero (prior to adding the diluted, overnight cultures) in varying concentrations, and the decrease in biofilm formation was recorded at 22-46 h for most bacteria. Planktonic cells were removed, biofilm cells adhering to the side of the tubes were stained with crystal violet, and absorbance at 595 nm was measured using a microtiter plate reader (Bio-Tek Instruments Inc., United States). Some peptides were screened against two Gram negative organisms, P. aeruginosa and K. pneumoniae using a Bioflux apparatus (AutoMate Scientific, Berkeley, Calif.; http://www.autom8.com/bioflux_biofilm.html), which allows for the high-throughput, real-time analysis of biofilms.

[2] = test system: human peripheral blood mononuclear cells (MCP-1); assay: MCP-1 chemokine production by ELISA; conditions: 24 hours of stimulation; lowest peptide concentration 20 μg/ml
Description: FIG. 19. High production of anti-infective chemokine MCP-1 by human peripheral blood mononuclear cells treated with peptides, as determined by ELISA after 24 hours of stimulation.
Venous blood (20 ml) from healthy volunteers was collected in Vacutainer® collection tubes containing sodium heparin as an anticoagulant (Becton Dickinson, Mississauga, ON) in accordance with UBC ethical approval and guidelines. Blood was diluted 1:1 with complete RPMI 1640 medium and separated by centrifugation over a Ficoll-Paque® Plus (Amersham Biosciences, Piscataway, N.J., USA) density gradient. White blood cells were isolated from the buffy coat, washed twice in RPMI 1640 complete medium, and the number of peripheral blood mononuclear cells (PBMC) was determined by Trypan blue exclusion. PBMC (5×10^5) were seeded into 12-well tissue culture dishes (Falcon; Becton Dickinson) at 0.75 to 1×10^6 cells/ml at 37° C. in 5% CO2. The above conditions were chosen to mimic conditions for circulating blood monocytes entering tissues at the site of infection via extravasation.
Following incubation of the cells under various treatment regimens, the tissue culture supernatants were centrifuged at 1000×g for 5 min, then at 10,000×g for 2 min to obtain cell-free samples. Supernatants were aliquoted and then stored at −20° C. prior to assay for various chemokines by capture ELISA (eBioscience and BioSource International Inc., CA, USA respectively)

[3] = test system: LPS-stimulated human peripheral blood mononuclear cells (IL1-β); conditions: Table 12A, cells stimulated with 10 ng/ml LPS; for Fold change in IL1β relative to no peptide LPS stimulated cells: 1002-2013 compared to LPS control of 889 pg/ml
P. aeruginosa biofilm = test system: P. aeruginosa biofilm
Description: (§1) Methods of assessment of anti-biofilm activity—Biofilm formation was initially analyzed using a static abiotic solid surface assay as described elsewhere (de la Fuente-Nunez et al., 2012). […] Planktonic cells were removed, biofilm cells adhering to the side of the tubes were stained with crystal violet, and absorbance at 595 nm was measured using a microtiter plate reader (Bio-Tek Instruments Inc., United States). Some peptides were screened against two Gram negative organisms, P. aeruginosa and K. pneumoniae using a Bioflux apparatus (AutoMate Scientific, Berkeley, Calif.; http://www.autom8.com/bioflux_biofilm.html), which allows for the high-throughput, real-time analysis of biofilms.

S. aureus biofilm = test system: S. aureus biofilm
Description: as §1

[4] = test system: human peripheral blood mononuclear cells (MCP-1); assay: SPOT-synthesized derivative screen: production of chemokine MCP-1; conditions: Table 12A, No LPS; for MCP1: background subtracted (21.3 pg/ml)
Summary of the method: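 MCP-1 was quantified by capture ELISA in cleared culture supernatants of treated human peripheral blood mononuclear cells. Cells came from heparinized volunteer blood via Ficoll gradient and were seeded at 0.75 to 1×10^6 cells/ml (37 °C, 5% CO2).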

[5] = LPS alone 984 pg/ml, starred values (1002-2013) determined separately, LPS alone 889 pg/ml
[6] = concentration that reduced biofilm growth by 50%

Compound	Fold change in IL1β relative to no peptide LPS stimulated cells [3]	IL1β Production [3, 5] [pg/mL]	Fold increase in MCP1 cf. untreated cells [4]	MCP1 [4] [pg/mL]	MBIC50 P. aeruginosa (P. aeruginosa biofilm; biofilm) [µg/mL]	MBIC50 S. aureus (S. aureus biofilm; biofilm) [µg/mL]	other results
CC[C@H](C)[C@H](NC(=O)[C@H](CC(C)C)NC(=O)[C@@H]1CCCN1C(=O)[C@H](CCCCN)NC(=O)[C@H](C)NC(=O)[C@@H](NC(=O)[C@@H](NC(=O)[C@@H](NC(=O)[C@@H](NC(=O)[C@H](CCCCN)NC(=O)[C@H](CCCCN)NC(=O)[C@H](C)NC(=O)[C@H](C)NC(=O)[C@H](CO)NC(=O)[C@@H](NC(=O)[C@H](CC(C)C)NC(=O)[C@H](CCCCN)NC(=O)[C@H](CCCCN)NC(=O)[C@@H](NC(=O)[C@H](Cc1ccccc1)NC(=O)[C@H](CO)NC(=O)[C@H](CCCCN)NC(=O)[C@H](Cc1c[nH]c2ccccc12)NC(=O)[C@@H](N)CCCCN)[C@@H](C)CC)[C@@H](C)O)C(C)C)C(C)C)[C@@H](C)O)[C@@H](C)O)C(=O)N[C@@H](CO)C(=O)N[C@@H](CO)C(N)=O [CP26] (H-KWKSFIKKLTSAAKKVVTTAKPLISS-NH2; N-terminus assumed)	–	–	–	–	–	–	% Biofilm Inhibition Pa ([1]; peptide 10 μg/ml): 62%
CC[C@H](C)[C@H](NC(=O)[C@H](Cc1c[nH]c2ccccc12)NC(=O)[C@H](CCCNC(=N)N)NC(=O)[C@@H](N)CCCNC(=N)N)C(=O)N[C@@H](CCCNC(=N)N)C(=O)N[C@H](C(=O)N[C@@H](C)C(=O)N[C@H](C(=O)N[C@H](C(=O)N[C@@H](CC(C)C)C(=O)N[C@@H](CCCNC(=N)N)C(=O)N[C@H](C(N)=O)C(C)C)[C@@H](C)CC)C(C)C)C(C)C [HE1]	–	–	–	–	–	–	MCP-1 induction [2]: clearly superior to peptide 1018
N=C(N)NCCC[C@H](NC(=O)[C@H](CCCNC(=N)N)NC(=O)[C@H](Cc1c[nH]c2ccccc12)NC(=O)[C@H](Cc1c[nH]c2ccccc12)NC(=O)[C@H](CCCCN)NC(=O)[C@H](Cc1c[nH]c2ccccc12)NC(=O)[C@H](Cc1c[nH]c2ccccc12)NC(=O)[C@H](CCCNC(=N)N)NC(=O)[C@@H](N)CCCCN)C(N)=O [HHC36, reference compound] (H-KRWWKWWRR-NH2; N-terminus assumed)	–	–	–	–	–	–	activity vs. biofilms ([1]; statement referring to Table 2): completely inactive
CC[C@H](C)[C@H](NC(=O)[C@H](C)N)C(=O)N[C@@H](CCCNC(=N)N)C(=O)N[C@H](C(=O)N[C@H](C(=O)N[C@@H](CCCNC(=N)N)C(=O)N[C@@H](C)C(=O)N[C@@H](CCCNC(=N)N)C(=O)N[C@@H](CC(C)C)C(=O)N[C@H](C(=O)N[C@@H](CCCNC(=N)N)C(=O)N[C@@H](CCCNC(=N)N)C(N)=O)C(C)C)C(C)C)C(C)C [Peptide 1009] (H-AIRVVRARLVRR-NH2; N-terminus assumed)	–	–	–	–	–	–	% Biofilm Inhibition Pa ([1]; Pa) biofilm, 10 μg/ml): 54%
CC[C@H](C)[C@H](NC(=O)[C@H](CCCNC(=N)N)NC(=O)[C@@H](NC(=O)[C@H](CCCNC(=N)N)NC(=O)[C@@H](NC(=O)[C@@H](NC(=O)[C@H](CC(C)C)NC(=O)[C@H](CCCNC(=N)N)NC(=O)[C@@H](N)C(C)C)[C@@H](C)CC)C(C)C)C(C)C)C(=O)N[C@@H](Cc1c[nH]c2ccccc12)C(=O)N[C@@H](CCCNC(=N)N)C(=O)N[C@@H](CCCNC(=N)N)C(N)=O [Peptide 2005] (H-VRLIVRVRIWRR-NH2; N-terminus assumed)	0.10	101	837	17826	–	–	MBIC50 P. aeruginosa (P. aeruginosa biofilm; [6]): 2.5 µg/mL; MBIC50 S. aureus (S. aureus biofilm; [6]): 10 µg/mL
CC[C@H](C)[C@H](NC(=O)[C@H](CCCNC(=N)N)NC(=O)[C@@H](NC(=O)[C@H](CCCCN)NC(=O)[C@@H](NC(=O)[C@@H](NC(=O)[C@H](Cc1c[nH]c2ccccc12)NC(=O)[C@H](CCCNC(=N)N)NC(=O)[C@@H](N)C(C)C)[C@@H](C)CC)C(C)C)C(C)C)C(=O)N[C@@H](CCCNC(=N)N)C(=O)N[C@@H](CCCNC(=N)N)C(=O)N[C@@H](CCCNC(=N)N)C(N)=O [Peptide 2006] (H-VRWIVKVRIRRR-NH2; N-terminus assumed)	0.33	322	316	6714	–	–	MBIC50 P. aeruginosa (P. aeruginosa biofilm; [6]): 20 µg/mL; MBIC50 S. aureus (S. aureus biofilm; [6]): 10 µg/mL
CC[C@H](C)[C@H](NC(=O)[C@H](CCCNC(=N)N)NC(=O)[C@@H](NC(=O)[C@H](CCCCN)NC(=O)[C@@H](NC(=O)[C@@H](NC(=O)[C@H](CC(C)C)NC(=O)[C@H](CCCNC(=N)N)NC(=O)[C@@H](N)CCCNC(=N)N)[C@@H](C)CC)C(C)C)C(C)C)C(=O)N[C@@H](Cc1c[nH]c2ccccc12)C(=O)N[C@@H](CCCNC(=N)N)C(=O)N[C@@H](CCCNC(=N)N)C(N)=O [Peptide 2007] (H-RRLIVKVRIWRR-NH2; N-terminus assumed)	0.88	867	386	7954	5	10	–
CC[C@H](C)[C@H](NC(=O)[C@H](CCCNC(=N)N)NC(=O)[C@@H](NC(=O)[C@H](CCCCN)NC(=O)[C@@H](NC(=O)[C@@H](NC(=O)[C@H](Cc1c[nH]c2ccccc12)NC(=O)[C@H](CCCNC(=N)N)NC(=O)[C@@H](N)CCCNC(=N)N)[C@@H](C)CC)C(C)C)C(C)C)C(=O)N[C@@H](CCCNC(=N)N)C(=O)N[C@@H](CCCNC(=N)N)C(=O)N[C@@H](CCCNC(=N)N)C(N)=O [Peptide 2008] (H-RRWIVKVRIRRR-NH2; N-terminus assumed)	0.25	250	2146	45524	10	10	–
CC[C@H](C)[C@H](NC(=O)[C@@H](NC(=O)[C@H](CCCCN)NC(=O)[C@@H](NC(=O)[C@H](CCCNC(=N)N)NC(=O)[C@H](CCCNC(=N)N)NC(=O)[C@@H](NC(=O)[C@H](CCCNC(=N)N)NC(=O)[C@H](CCC(N)=O)NC(=O)[C@@H](N)Cc1c[nH]c2ccccc12)C(C)C)C(C)C)C(C)C)C(=O)N[C@@H](CCCNC(=N)N)C(=O)N[C@@H](CCCCN)C(N)=O [Peptide 2013] (H-WQRVRRVKVIRK-NH2; N-terminus assumed)	0.93	–	31	645	20	>80	IL1β Production (pg/ml) [3, 5]: 830* pg/ml
CC[C@H](C)[C@H](NC(=O)[C@H](CCCNC(=N)N)NC(=O)[C@H](C)NC(=O)[C@H](CC(C)C)NC(=O)[C@@H](N)CCCNC(=N)N)C(=O)N[C@H](C(=O)N[C@H](C(=O)N[C@H](C(=O)N[C@@H](CCCNC(=N)N)C(=O)N[C@H](C(=O)N[C@@H](CCCNC(=N)N)C(=O)N[C@@H](CCCNC(=N)N)C(N)=O)C(C)C)[C@@H](C)CC)C(C)C)C(C)C [Peptide E3] (H-RLARIVVIRVRR-NH2; N-terminus assumed)	–	–	–	–	–	–	% Biofilm Inhibition Pa ([1]; Pa) biofilm, 10 μg/ml): 47%
